Test results: patent publication US8952024B2, “Herbicidal pyrimidone derivatives” (E I du Pont de Nemours and Company, priority 2009, dated 2015)
Read-outs that look alike come from different tables or passages of the source.

Assays:
Assay type in all cases: in vivo
soybean (Glycine max) = assay: Test B pre-/postemergence plant response; conditions: Preemergence, 250 g ai/ha; 0 to 100 scale
Procedure, shortened: (§1)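 Each species received compound formulated in non-phytotoxic solvent with surfactant, either at planting into a loam and sand blend or as a foliar spray once plants reached 2 to 18 cm in peat-based medium. Plants stayed in the greenhouse 13 to 15 days before visual evaluation against controls, scored 0 (no effect) to 100 (complete control).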

[1] = system: bermudagrass (Cynodon dactylon); assay: Test B pre-/postemergence plant response; conditions: for pest or weed control at 31 g/ha: 31 g ai/ha; for pest or weed control at 62 g/ha: 62 g ai/ha; for pest or weed control at 125 g/ha: 125 g ai/ha
Procedure, shortened: as §1

[2] = system: Italian ryegrass (Lolium multiflorum); assay: Test B pre-/postemergence plant response; conditions: for pest or weed control at 31 g/ha: 31 g ai/ha; for pest or weed control at 62 g/ha: 62 g ai/ha; for pest or weed control at 125 g/ha: 125 g ai/ha
Procedure, shortened: as §1

[3] = system: ragweed (common ragweed, Ambrosia elatior); assay: Test B pre-/postemergence plant response; conditions: for pest or weed control at 31 g/ha: 31 g ai/ha; for pest or weed control at 62 g/ha: 62 g ai/ha; for pest or weed control at 125 g/ha: 125 g ai/ha
Procedure, shortened: as §1

[4] = system: umbrella sedge (Cyperus difformis); assay: Test B flooded paddy test
Procedure, shortened: (§2)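 2-leaf seedlings; pots flooded 3 cm over soil at treatment; cpd dosed into floodwater, depth kept constant. Greenhouse 13–15 d. Visual rating vs untreated controls, 0 = no effect, 100 = complete control.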

[5] = system: ducksalad (Heteranthera limosa); assay: Test B flooded paddy test
Procedure, shortened: as §2

rice (Oryza sativa) = assay: Test B flooded paddy test
Procedure, shortened: as §2

[6] = system: barnyardgrass (Echinochloa crus-galli); assay: Test B flooded paddy test
Procedure, shortened: as §2

[7] = Cynodon dactylon, pre-emergence, Preemergence, scale 0 to 100 (0 no effect, 100 complete control), read-out: Plant response rating, Bermudagrass
[8] = Lolium multiflorum, pre-emergence, Preemergence, scale 0 to 100 (0 no effect, 100 complete control), read-out: Plant response rating, Ryegrass, Italian
[9] = Preemergence, 250 g ai/ha, 0 to 100 scale
[10] = Ambrosia artemisiifolia, pre-emergence, 360 h, Preemergence, scale 0 to 100 (0 no effect, 100 complete control), read-out: Plant response rating, Ragweed
[11] = Flood, 31 g ai/ha, scale 0 to 100 (0 no effect, 100 complete control)

COCCn1c(-c2cc(F)cc(F)c2)ncc(C(=O)C2=C(O)C3CCC(C3)C2=O)c1=O (centres unmarked) [Compound 243, 2-(3,5-difluorophenyl)-5-[(2-hydroxy-4-oxobicyclo[3.2.1]oct-2-en-3-yl)carbonyl]-3-(2-methoxyethyl)-4(3H)-pyrimidinone]
Soybean plant response rating (soybean (Glycine max)): 95 | pest or weed control at 31 g/ha ([1]; Cynodon dactylon, post-emergence, Postemergence, 0 to 100 scale (0 no effect, 100 complete control), read-out: Plant response rating, Bermudagrass): 98% | pest or weed control at 62 g/ha ([1]; Cynodon dactylon, post-emergence, Postemergence, scale 0 to 100 (0 no effect, 100 complete control), read-out: Plant response rating, Bermudagrass): 98% | pest or weed control at 125 g/ha ([1]; Cynodon dactylon, post-emergence, Postemergence, scale 0 (no effect) to 100 (complete control), 13 to 15 days, read-out: Plant response rating, Bermudagrass): 100% | pest or weed control at 250 g/ha ([1]; Cynodon dactylon, post-emergence, Postemergence, 250 g ai/ha, scale 0 to 100 (0 no effect, 100 complete control), 13 to 15 days, read-out: Plant response rating, Bermudagrass): 100% | pest or weed control at 31 g/ha [1, 7]: 100% | pest or weed control at 62 g/ha [1, 7]: 100% | pest or weed control at 125 g/ha ([1]; Cynodon dactylon, pre-emergence, Preemergence, scale 0 to 100, 0 no effect, 100 complete control, read-out: Plant response rating, Bermudagrass): 100% | Bermudagrass plant response rating ([1]; Preemergence, 250 g ai/ha, 0 to 100 scale, 0 no effect, 100 complete control): 100 | pest or weed control at 31 g/ha ([2]; Lolium multiflorum, post-emergence, Postemergence, 0 to 100 scale (0 no effect, 100 complete control), read-out: Plant response rating, Ryegrass, Italian): 60% | pest or weed control at 62 g/ha ([2]; Lolium multiflorum, post-emergence, Postemergence, scale 0 to 100 (0 no effect, 100 complete control), read-out: Plant response rating, Ryegrass, Italian): 85% | pest or weed control at 125 g/ha ([2]; Lolium multiflorum, post-emergence, Postemergence, scale 0 (no effect) to 100 (complete control), 13 to 15 days, read-out: Plant response rating, Ryegrass, Italian): 85% | pest or weed control at 250 g/ha ([2]; Lolium multiflorum, post-emergence, Postemergence, 250 g ai/ha, scale 0 to 100 (0 no effect, 100 complete control), 13 to 15 days, read-out: Plant response rating, Ryegrass, Italian): 95% | pest or weed control at 31 g/ha [2, 8]: 0% | pest or weed control at 62 g/ha [2, 8]: 10% | pest or weed control at 125 g/ha ([2]; Lolium multiflorum, pre-emergence, Preemergence, scale 0 to 100, 0 no effect, 100 complete control, read-out: Plant response rating, Ryegrass, Italian): 45% | Ryegrass, Italian plant response rating [2, 9]: 70 | pest or weed control at 31 g/ha ([3]; Ambrosia artemisiifolia, post-emergence, 360 h, Postemergence, 0 to 100 scale (0 no effect, 100 complete control), read-out: Plant response rating, Ragweed): 90% | pest or weed control at 62 g/ha ([3]; Ambrosia artemisiifolia, post-emergence, 360 h, Postemergence, scale 0 to 100 (0 no effect, 100 complete control), read-out: Plant response rating, Ragweed): 95% | pest or weed control at 125 g/ha ([3]; Ambrosia artemisiifolia, post-emergence, 360 h, Postemergence, scale 0 (no effect) to 100 (complete control), 13 to 15 days, read-out: Plant response rating, Ragweed): 98% | pest or weed control at 250 g/ha ([3]; Ambrosia artemisiifolia, post-emergence, 360 h, Postemergence, 250 g ai/ha, scale 0 to 100 (0 no effect, 100 complete control), 13 to 15 days, read-out: Plant response rating, Ragweed): 100% | pest or weed control at 31 g/ha [3, 10]: 85% | pest or weed control at 62 g/ha [3, 10]: 95% | pest or weed control at 125 g/ha ([3]; Ambrosia artemisiifolia, pre-emergence, 360 h, Preemergence, scale 0 to 100, 0 no effect, 100 complete control, read-out: Plant response rating, Ragweed): 98% | Ragweed plant response rating [3, 9]: 98 | pest or weed control at 250 g/ha ([4]; Cyperus difformis, 360 h, 250 g ai/ha, flooded paddy test, visual rating on 0 to 100 scale (0 no effect, 100 complete control) after 13 to 15 days, read-out: Plant response rating, Flood, Sedge, Umbrella): 100% | pest or weed control at 62 g/ha ([4]; Cyperus difformis, 360 h, Flood (flooded paddy test), 62 g ai/ha, scale of 0 to 100 where 0 is no effect and 100 is complete control, 13 to 15 days, read-out: Plant response rating, Sedge, Umbrella): 90% | pest or weed control at 125 g/ha ([4]; Cyperus difformis, 360 h, Flood (flooded paddy test), 125 g ai/ha, scale 0 to 100, 0 is no effect, 100 is complete control, 13 to 15 days, read-out: Plant response rating, Sedge, Umbrella): 100% | Sedge, Umbrella plant response rating [4, 11]: 0 | Ducksalad plant response rating [5, 11]: 0 | pest or weed control at 250 g/ha ([5]; Heteranthera limosa, 360 h, 250 g ai/ha, flooded paddy test, visual rating on 0 to 100 scale (0 no effect, 100 complete control) after 13 to 15 days, read-out: Plant response rating, Flood, Ducksalad): 100% | pest or weed control at 62 g/ha ([5]; Heteranthera limosa, 360 h, Flood (flooded paddy test), 62 g ai/ha, scale of 0 to 100 where 0 is no effect and 100 is complete control, 13 to 15 days, read-out: Plant response rating, Ducksalad): 85% | pest or weed control at 125 g/ha ([5]; Heteranthera limosa, 360 h, Flood (flooded paddy test), 125 g ai/ha, scale 0 to 100, 0 is no effect, 100 is complete control, 13 to 15 days, read-out: Plant response rating, Ducksalad): 100% | Rice plant response rating (rice (Oryza sativa); [11]): 45 | plant injury at 250 g/ha (rice (Oryza sativa); Oryza sativa, 250 g ai/ha, flooded paddy test, visual rating on 0 to 100 scale (0 no effect, 100 complete control) after 13 to 15 days, read-out: Plant response rating, Flood, Rice): 75% | plant injury at 62 g/ha (rice (Oryza sativa); Oryza sativa, Flood (flooded paddy test), 62 g ai/ha, scale of 0 to 100 where 0 is no effect and 100 is complete control, 13 to 15 days, read-out: Plant response rating, Rice): 60% | plant injury at 125 g/ha (rice (Oryza sativa); Oryza sativa, Flood (flooded paddy test), 125 g ai/ha, scale 0 to 100, 0 is no effect, 100 is complete control, 13 to 15 days, read-out: Plant response rating, Rice): 95% | pest or weed control at 250 g/ha ([6]; Echinochloa crus-galli, 360 h, 250 g ai/ha, flooded paddy test, visual rating on 0 to 100 scale (0 no effect, 100 complete control) after 13 to 15 days, read-out: Plant response rating, Flood, Barnyardgrass): 85% | pest or weed control at 62 g/ha ([6]; Echinochloa crus-galli, 360 h, Flood (flooded paddy test), 62 g ai/ha, scale of 0 to 100 where 0 is no effect and 100 is complete control, 13 to 15 days, read-out: Plant response rating, Barnyardgrass): 30% | pest or weed control at 125 g/ha ([6]; Echinochloa crus-galli, 360 h, Flood (flooded paddy test), 125 g ai/ha, scale 0 to 100, 0 is no effect, 100 is complete control, 13 to 15 days, read-out: Plant response rating, Barnyardgrass): 75% | Barnyardgrass plant response rating [6, 11]: 0
